Assay results from PubChem BioAssay AID1745844 (Carcinogenic Potency Database (CPDB), 2022).
Calls of active or inactive are those of the source. No rule for the calls is given here.

Test system: rodent lifetime carcinogenesis bioassay, tumor incidence TD50
Test: chronic cancer bioassays in animals – CPDB, compiled studies (AID 1745844)

## CC1=C(C(=O)OC(C)C)C(c2cccc([N+](=O)[O-])c2)C(C(=O)OC2CN(C(c3ccccc3)c3ccccc3)C2)=C(N)N1 (stereo not given)
mouse, strain B6C3F1, females, by gavage, site: any site (literature study), lesion: several types, types named in the paper, dosed 78 weeks, study length 78 weeks
  carcinogen call: negative (inactive)
mouse, strain B6C3F1, females, by gavage, site: liver, lesion: hepatocellular adenoma, dosed 78 weeks, study length 78 weeks
  carcinogen call: negative (inactive)
mouse, strain B6C3F1, females, by gavage, site: liver, lesion: hepatocellular carcinoma, dosed 78 weeks, study length 78 weeks
  carcinogen call: negative (inactive)
mouse, strain B6C3F1, females, by gavage, site: lung, lesion: alveolar/bronchiolar adenoma, dosed 78 weeks, study length 78 weeks
  TD50: 217 mg/kg/day (inactive)
mouse, strain B6C3F1, females, by gavage, site: lung, lesion: alveolar/bronchiolar carcinoma, dosed 78 weeks, study length 78 weeks
  carcinogen call: negative (inactive)
mouse, strain B6C3F1, males, by gavage, site: any site (literature study), lesion: several types, types named in the paper, dosed 78 weeks, study length 78 weeks
  TD50: 83.5 mg/kg/day (inactive)
mouse, strain B6C3F1, males, by gavage, site: liver, lesion: hepatocellular adenoma, dosed 78 weeks, study length 78 weeks
  carcinogen call: negative (inactive)
mouse, strain B6C3F1, males, by gavage, site: liver, lesion: hepatocellular carcinoma, dosed 78 weeks, study length 78 weeks
  carcinogen call: negative (inactive)
mouse, strain B6C3F1, males, by gavage, site: lung, lesion: alveolar/bronchiolar adenoma, dosed 78 weeks, study length 78 weeks
  TD50: 65 mg/kg/day (inactive)
mouse, strain B6C3F1, males, by gavage, site: lung, lesion: alveolar/bronchiolar carcinoma, dosed 78 weeks, study length 78 weeks
  TD50: 227 mg/kg/day (inactive)
rat, strain F344/DuCrj, females, by gavage, site: any site (literature study), lesion: several types, types named in the paper, dosed 104 weeks, study length 104 weeks
  carcinogen call: negative (inactive)
rat, strain F344/DuCrj, females, by gavage, site: liver, lesion: hepatocellular adenoma, dosed 104 weeks, study length 104 weeks
  carcinogen call: negative (inactive)
rat, strain F344/DuCrj, females, by gavage, site: liver, lesion: hepatocellular carcinoma, dosed 104 weeks, study length 104 weeks
  carcinogen call: negative (inactive)
rat, strain F344/DuCrj, males, by gavage, site: any site (literature study), lesion: several types, types named in the paper, dosed 104 weeks, study length 104 weeks
  carcinogen call: negative (inactive)
rat, strain F344/DuCrj, males, by gavage, site: liver, lesion: hepatocellular adenoma, dosed 104 weeks, study length 104 weeks
  TD50: 117 mg/kg/day (inactive)
rat, strain F344/DuCrj, males, by gavage, site: liver, lesion: hepatocellular carcinoma, dosed 104 weeks, study length 104 weeks
  TD50: 237 mg/kg/day (inactive)

## CC1=C[C@H]2O[C@@H]3[C@H](O)C[C@](C)([C@@]2(CO)[C@H](O)C1=O)[C@]31CO1
mouse, strain B6C3F1, males, in feed, site: liver, lesion: hepatocellular adenoma, dosed 104 weeks, study length 104 weeks
  carcinogen call: negative (inactive)
mouse, strain B6C3F1, males, in feed, site: liver, lesion: hepatocellular carcinoma, dosed 104 weeks, study length 104 weeks
  carcinogen call: negative (inactive)

## CC(O)CNCC(C)O (stereo not given)
rat, strain Wistar, males, in feed, site: liver, lesion: hepatocellular carcinoma, dosed 94 weeks, study length 94 weeks
  carcinogen call: negative (inactive)
rat, strain Wistar, males, in feed, site: lung, lesion: one or several types, types not named, dosed 94 weeks, study length 94 weeks
  carcinogen call: negative (inactive)
rat, strain Wistar, males, in feed, site: nasal cavity, lesion: one or several types, types not named, dosed 94 weeks, study length 94 weeks
  carcinogen call: negative (inactive)

## O[C@H]([C@H](O)[C@@H](O)CBr)[C@H](O)CBr
mouse, strain Swiss, females, i.p., site: all sites, lesion: leukemia, dosed 26 weeks, study length 78 weeks
  TD50: 46.3 mg/kg/day
mouse, strain Swiss, females, i.p., site: all sites, lesion: lymphosarcoma, dosed 26 weeks, study length 78 weeks
  TD50: 12.2 mg/kg/day
mouse, strain Swiss, females, i.p., site: any site (literature study), lesion: benign tumor, dosed 26 weeks, study length 78 weeks
  TD50: 24.5 mg/kg/day
mouse, strain Swiss, females, i.p., site: any site (literature study), lesion: malignant tumor, dosed 26 weeks, study length 78 weeks
  TD50: 4.75 mg/kg/day
mouse, strain Swiss, females, i.p., site: any site (literature study), lesion: several types, types named in the paper, dosed 26 weeks, study length 78 weeks
  TD50: 2.45 mg/kg/day
mouse, strain Swiss, females, i.p., site: lung, lesion: several types, types named in the paper, dosed 26 weeks, study length 78 weeks
  TD50: 9.23 mg/kg/day
mouse, strain Swiss, males, i.p., site: all sites, lesion: lymphatic leukemia, dosed 26 weeks, study length 78 weeks
  TD50: 32.4 mg/kg/day
mouse, strain Swiss, males, i.p., site: all sites, lesion: lymphosarcoma, dosed 26 weeks, study length 78 weeks
  TD50: 17.6 mg/kg/day
mouse, strain Swiss, males, i.p., site: any site (literature study), lesion: malignant tumor, dosed 26 weeks, study length 78 weeks
  TD50: 15.2 mg/kg/day
mouse, strain Swiss, males, i.p., site: any site (literature study), lesion: several types, types named in the paper, dosed 26 weeks, study length 78 weeks
  TD50: 12.7 mg/kg/day
mouse, strain Swiss, males, i.p., site: lung, lesion: several types, types named in the paper, dosed 26 weeks, study length 78 weeks
  TD50: 13.5 mg/kg/day
rat, strain Charles River CD (Sprague-Dawley), males, i.p., site: all sites, lesion: lymphosarcoma, dosed 26 weeks, study length 78 weeks
  TD50: 182 mg/kg/day
rat, strain Charles River CD (Sprague-Dawley), males, i.p., site: any site (literature study), lesion: malignant tumor, dosed 26 weeks, study length 78 weeks
  TD50: 5.05 mg/kg/day
rat, strain Charles River CD (Sprague-Dawley), males, i.p., site: any site (literature study), lesion: several types, types named in the paper, dosed 26 weeks, study length 78 weeks
  TD50: 3.13 mg/kg/day
rat, strain Charles River CD (Sprague-Dawley), males, i.p., site: mammary gland, lesion: squamous-cell carcinoma, dosed 26 weeks, study length 78 weeks
  TD50: 182 mg/kg/day
rat, strain Charles River CD (Sprague-Dawley), males, i.p., site: peritoneum, lesion: sarcoma, dosed 26 weeks, study length 78 weeks
  TD50: 59.2 mg/kg/day
rat, strain Charles River CD (Sprague-Dawley), males, i.p., site: skin, lesion: several types, types named in the paper, dosed 26 weeks, study length 78 weeks
  TD50: 8.37 mg/kg/day

## CCCC/C=N/N(C)C=O
mouse, strain Swiss albino, females, by gavage, site: liver, lesion: hepatoma, benign, dosed 52 weeks, study length 144 weeks
  TD50: 11.8 mg/kg/day
mouse, strain Swiss albino, females, by gavage, site: lung, lesion: adenocarcinoma, dosed 52 weeks, study length 144 weeks
  TD50: 9.29 mg/kg/day
mouse, strain Swiss albino, females, by gavage, site: lung, lesion: adenoma, dosed 52 weeks, study length 144 weeks
  TD50: 5.64 mg/kg/day
mouse, strain Swiss albino, females, by gavage, site: lung, lesion: several types, types named in the paper, dosed 52 weeks, study length 144 weeks
  TD50: 3.12 mg/kg/day
mouse, strain Swiss albino, males, by gavage, site: liver, lesion: hepatoma, dosed 52 weeks, study length 134 weeks
  TD50: 33.1 mg/kg/day
mouse, strain Swiss albino, males, by gavage, site: lung, lesion: adenocarcinoma, dosed 52 weeks, study length 134 weeks
  TD50: 11 mg/kg/day
mouse, strain Swiss albino, males, by gavage, site: lung, lesion: adenoma, dosed 52 weeks, study length 134 weeks
  TD50: 5.52 mg/kg/day
mouse, strain Swiss albino, males, by gavage, site: lung, lesion: several types, types named in the paper, dosed 52 weeks, study length 134 weeks
  TD50: 3.79 mg/kg/day
mouse, strain Swiss albino, males, by gavage, site: preputial gland, lesion: several types, types named in the paper, dosed 52 weeks, study length 134 weeks
  TD50: 16.2 mg/kg/day
mouse, strain Swiss albino, males, by gavage, site: preputial gland, lesion: squamous-cell carcinoma, dosed 52 weeks, study length 134 weeks
  TD50: 19.8 mg/kg/day
mouse, strain Swiss albino, males, by gavage, site: preputial gland, lesion: squamous-cell papilloma, dosed 52 weeks, study length 134 weeks
  TD50: 106 mg/kg/day

## NC(=O)N(CCCO)N=O
rat, strain Fischer 344, females, by gavage, site: forestomach, lesion: one or several types, types not named, dosed 30 weeks, study length 104 weeks
  TD50: 1.27 mg/kg/day
rat, strain Fischer 344, females, by gavage, site: liver, lesion: one or several types, types not named, dosed 30 weeks, study length 104 weeks
  TD50: 1.27 mg/kg/day
rat, strain Fischer 344, males, by gavage, site: forestomach, lesion: one or several types, types not named, dosed 30 weeks, study length 104 weeks
  TD50: 1.98 mg/kg/day
rat, strain Fischer 344, males, by gavage, site: forestomach, lesion: one or several types, types not named, dosed 40 weeks, study length 104 weeks
  TD50: 0.866 mg/kg/day
rat, strain Fischer 344, males, by gavage, site: liver, lesion: one or several types, types not named, dosed 30 weeks, study length 104 weeks
  TD50: 3.78 mg/kg/day
rat, strain Fischer 344, males, by gavage, site: liver, lesion: one or several types, types not named, dosed 40 weeks, study length 104 weeks
  TD50: 1.24 mg/kg/day
rat, strain Fischer 344, males, by gavage, site: lung, lesion: several types, types named in the paper, dosed 30 weeks, study length 104 weeks
  TD50: 1.79 mg/kg/day
rat, strain Fischer 344, males, by gavage, site: skin, lesion: several types, types named in the paper, dosed 30 weeks, study length 104 weeks
  TD50: 0.668 mg/kg/day
rat, strain Fischer 344, males, by gavage, site: stomach, glandular, lesion: one or several types, types not named, dosed 30 weeks, study length 104 weeks
  TD50: 0.888 mg/kg/day

## NC1CCCCC1
mouse, strain ASH-CS1, females, in feed, site: any site (literature study), lesion: several types, types named in the paper, dosed 80 weeks, study length 84 weeks
  carcinogen call: negative (inactive)
mouse, strain ASH-CS1, females, in feed, site: liver, lesion: nodular hyperplasia, dosed 80 weeks, study length 84 weeks
  carcinogen call: negative (inactive)
mouse, strain ASH-CS1, females, in feed, site: lung, lesion: adenoma, dosed 80 weeks, study length 84 weeks
  carcinogen call: negative (inactive)
mouse, strain ASH-CS1, males, in feed, site: any site (literature study), lesion: several types, types named in the paper, dosed 80 weeks, study length 84 weeks
  carcinogen call: negative (inactive)
mouse, strain ASH-CS1, males, in feed, site: liver, lesion: nodular hyperplasia, dosed 80 weeks, study length 84 weeks
  TD50: 231 mg/kg/day (inactive)
mouse, strain ASH-CS1, males, in feed, site: lung, lesion: adenocarcinoma, dosed 80 weeks, study length 84 weeks
  carcinogen call: negative (inactive)
mouse, strain ASH-CS1, males, in feed, site: lung, lesion: adenoma, dosed 80 weeks, study length 84 weeks
  carcinogen call: negative (inactive)
mouse, strain Swiss, females, in feed, site: urinary bladder, lesion: anaplastic carcinoma, dosed 91 weeks, study length 91 weeks
  carcinogen call: negative (inactive)
mouse, strain Swiss, males, in feed, site: urinary bladder, lesion: one or several types, types not named, dosed 91 weeks, study length 91 weeks
  carcinogen call: negative (inactive)
rat, strain Charles River albino, males, in feed, site: urinary bladder, lesion: transitional-cell carcinoma, dosed 104 weeks, study length 104 weeks
  TD50: 280 mg/kg/day
rat, strain FDRL, both sexes, in feed, site: any site (literature study), lesion: several types, types named in the paper, dosed 104 weeks, study length 104 weeks
  carcinogen call: negative (inactive)
rat, strain Sprague-Dawley, both sexes, in feed, site: any site (literature study), lesion: malignant tumor, dosed 130 weeks, study length 130 weeks
  carcinogen call: negative (inactive)
rat, strain Sprague-Dawley, both sexes, in feed, site: liver, lesion: liver-cell adenoma, dosed 130 weeks, study length 130 weeks
  TD50: 14500 mg/kg/day (inactive)
rat, strain Sprague-Dawley, both sexes, in feed, site: urinary bladder, lesion: one or several types, types not named, dosed 130 weeks, study length 130 weeks
  carcinogen call: negative (inactive)
rat, strain Wistar, females, in feed, site: liver, lesion: hemangioma, dosed 104 weeks, study length 104 weeks
  TD50: 1330 mg/kg/day (inactive)
rat, strain Wistar, males, in feed, site: liver, lesion: hemangioma, dosed 104 weeks, study length 104 weeks
  carcinogen call: negative (inactive)
rat, strain Wistar, males, in feed, site: liver, lesion: nodular hyperplasia, dosed 104 weeks, study length 104 weeks
  TD50: 47000 mg/kg/day (inactive)
